# Data as given in EP1795539B1, “Cell penetrating peptides for intracellular delivery of molecules” (Centre National de la Recherche Scientifique, priority 2005, dated 2007).
# Where two headings read alike, the source gives them in different places. Numbered stars: 1 amine (or outer) side, 2 acyl side, 3 side chain; on linkers, the order of the positions; unused ones are H or OH. Ends that are not written are not given here. Peptide text beside a SMILES is read from it. Cysteamide = C(CS[*:3])N[*:1]
# How the values were obtained:
# [1] = tested on: HS-68 and Hela cells; assay: Toxicity of CADY variants, MTT cell viability assay (Table 1); format: cell-based; details: for toxicity: at concentration of 100 µM
# Description: The toxicity of CADY peptides has been investigated on different cell lines. Cells were incubated in the presence of increasing concentrations of CADY (from 0.1 µM to 1 mM) for 12 hrs and cell viability was estimated using MTT assay.
# [2] = molecular target: short 17-residues peptide (cargo used with CADY-2); assay: steady state Trp fluorescence quenching; fixed CADY (0.1 uM) titrated with cargo peptide; quadratic fit
# [3] = free peptide, MTT, read-out: free EC50
Molecule,"EC50 [1, 3]",further results
CC(=O)NCC(=O)N[C@@H](CC(C)C)C(=O)N[C@@H](Cc1c[nH]c2ccccc12)C(=O)N[C@@H](CCCNC(=N)N)C(=O)N[C@@H](C)C(=O)N[C@@H](CC(C)C)C(=O)N[C@@H](Cc1c[nH]c2ccccc12)C(=O)N[C@@H](CCCNC(=N)N)C(=O)N[C@@H](C)C(=O)N[C@@H](CC(C)C)C(=O)N[C@@H](Cc1c[nH]c2ccccc12)C(=O)N[C@@H](CCCNC(=N)N)C(=O)N[C@@H](CO)C(=O)N[C@@H](CC(C)C)C(=O)N[C@@H](Cc1c[nH]c2ccccc12)C(=O)N[C@@H](CCCCN)C(=O)N[C@@H](CC(C)C)C(=O)N[C@@H](CCCCN)C(=O)N[C@@H](Cc1c[nH]c2ccccc12)C(=O)N[C@@H](CCCCN)C(=O)N[C@H](C(=O)NCCS)C(C)C [CADY-2] (HELM PEPTIDE1{[ac].G.L.W.R.A.L.W.R.A.L.W.R.S.L.W.K.L.K.W.K.V.[SCCN[*:1]]}$$$$V2.0),230 µM,
CC(C)C[C@H](NC(=O)CN)C(=O)N[C@@H](Cc1c[nH]c2ccccc12)C(=O)N[C@@H](CCCNC(=N)N)C(=O)N[C@@H](C)C(=O)N[C@@H](CC(C)C)C(=O)N[C@@H](Cc1c[nH]c2ccccc12)C(=O)N[C@@H](CCCNC(=N)N)C(=O)N[C@@H](C)C(=O)N[C@@H](CC(C)C)C(=O)N[C@@H](Cc1c[nH]c2ccccc12)C(=O)N[C@@H](CCCNC(=N)N)C(=O)N[C@@H](CO)C(=O)N[C@@H](CC(C)C)C(=O)N[C@@H](Cc1c[nH]c2ccccc12)C(=O)N[C@@H](CCCCN)C(=O)N[C@@H](CC(C)C)C(=O)N[C@@H](CCCCN)C(=O)N[C@@H](CCCNC(=N)N)C(=O)N[C@@H](CCCCN)C(=O)N[C@H](C(=O)NCCS)C(C)C [CADY-1b] (HELM PEPTIDE1{G.L.W.R.A.L.W.R.A.L.W.R.S.L.W.K.L.K.R.K.V.[SCCN[*:1]]}$$$$V2.0),500 µM,"EC50 ([1]; free peptide, MTT, listed as CADY-2d, read-out: free EC50): 380 µM"
CC(C)C[C@H](NC(=O)CN)C(=O)N[C@@H](Cc1c[nH]c2ccccc12)C(=O)N[C@@H](CCCNC(=N)N)C(=O)N[C@@H](C)C(=O)N[C@@H](CC(C)C)C(=O)N[C@@H](Cc1c[nH]c2ccccc12)C(=O)N[C@@H](CCCNC(=N)N)C(=O)N[C@@H](C)C(=O)N[C@@H](CC(C)C)C(=O)N[C@@H](CCCNC(=N)N)C(=O)N[C@@H](CO)C(=O)N[C@@H](CC(C)C)C(=O)N[C@@H](Cc1c[nH]c2ccccc12)C(=O)N[C@@H](CCCCN)C(=O)N[C@@H](CC(C)C)C(=O)N[C@@H](CCCCN)C(=O)N[C@@H](CCCNC(=N)N)C(=O)N[C@@H](CCCCN)C(=O)N[C@H](C(=O)NCCS)C(C)C [CADY-1c] (HELM PEPTIDE1{G.L.W.R.A.L.W.R.A.L.R.S.L.W.K.L.K.R.K.V.[SCCN[*:1]]}$$$$V2.0),450 µM,
"WEAALAEALAEALAEHLAEALAEALEALAA [GALA, reference compound]",,toxicity [1]: > 70%
CC(C)C[C@H](NC(=O)CN)C(=O)N[C@@H](Cc1c[nH]c2ccccc12)C(=O)N[C@@H](CCCNC(=N)N)C(=O)N[C@@H](C)C(=O)N[C@@H](CC(C)C)C(=O)N[C@@H](Cc1c[nH]c2ccccc12)C(=O)N[C@@H](CCCNC(=N)N)C(=O)NCC(=O)N[C@@H](CC(C)C)C(=O)N[C@@H](CCCNC(=N)N)C(=O)N[C@@H](CO)C(=O)N[C@@H](CC(C)C)C(=O)N[C@@H](Cc1c[nH]c2ccccc12)C(=O)N[C@@H](CCCCN)C(=O)N[C@@H](CCCCN)C(=O)N[C@@H](CCCCN)C(=O)N[C@@H](CCCNC(=N)N)C(=O)N[C@@H](CCCCN)C(=O)N[C@H](C(=O)NCCS)C(C)C [CADY-1e] (HELM PEPTIDE1{G.L.W.R.A.L.W.R.G.L.R.S.L.W.K.K.K.R.K.V.[SCCN[*:1]]}$$$$V2.0),340 µM,
CC(C)C[C@H](NC(=O)CN)C(=O)N[C@@H](Cc1c[nH]c2ccccc12)C(=O)N[C@@H](CCCNC(=N)N)C(=O)N[C@@H](C)C(=O)N[C@@H](CC(C)C)C(=O)N[C@@H](Cc1c[nH]c2ccccc12)C(=O)N[C@@H](CCCNC(=N)N)C(=O)N[C@@H](C)C(=O)N[C@@H](CC(C)C)C(=O)N[C@@H](Cc1c[nH]c2ccccc12)C(=O)N[C@@H](CCCNC(=N)N)C(=O)N[C@@H](CO)C(=O)N[C@@H](CC(C)C)C(=O)N[C@@H](Cc1c[nH]c2ccccc12)C(=O)N[C@@H](CCCCN)C(=O)N[C@@H](CO)C(=O)N[C@@H](CCCCN)C(=O)N[C@@H](CCCNC(=N)N)C(=O)N[C@@H](CCCCN)C(=O)N[C@H](C(=O)NCCS)C(C)C [CADY-2b] (HELM PEPTIDE1{G.L.W.R.A.L.W.R.A.L.W.R.S.L.W.K.S.K.R.K.V.[SCCN[*:1]]}$$$$V2.0),280 µM,
CC(=O)NCC(=O)N[C@@H](CC(C)C)C(=O)N[C@@H](Cc1c[nH]c2ccccc12)C(=O)N[C@@H](CCCNC(=N)N)C(=O)N[C@@H](C)C(=O)N[C@@H](CC(C)C)C(=O)N[C@@H](Cc1c[nH]c2ccccc12)C(=O)N[C@@H](CCCNC(=N)N)C(=O)N[C@@H](CC(C)C)C(=O)N[C@@H](CC(C)C)C(=O)N[C@@H](CCCNC(=N)N)C(=O)N[C@@H](CO)C(=O)N[C@@H](CC(C)C)C(=O)N[C@@H](Cc1c[nH]c2ccccc12)C(=O)N[C@@H](CCCNC(=N)N)C(=O)N[C@@H](CC(C)C)C(=O)N[C@@H](CC(C)C)C(=O)N[C@@H](Cc1c[nH]c2ccccc12)C(=O)N[C@@H](CCCCN)C(=O)N[C@@H](C)C(=O)NCCSS[C@H]1CC[C@@]2(C)C(=CC[C@H]3[C@@H]4CC[C@H]([C@H](C)CCCC(C)C)[C@@]4(C)CC[C@@H]32)C1 [CADY-S2] (HELM PEPTIDE1{[ac].G.L.W.R.A.L.W.R.L.L.R.S.L.W.R.L.L.W.K.A.[CC(C)CCC[C@@H](C)[C@H]1CC[C@H]2[C@@H]3CC=C4C[C@@H](SSCCN[*:1])CC[C@]4(C)[C@H]3CC[C@]12C]}$$$$V2.0; N-terminus assumed),,EC50 ([1]; 12 h): 250 µM
"WEAKLAKALAKALAKHLAKALAKALKACEA [KALA, reference compound]",,toxicity [1]: > 70%
CC(C)C[C@H](NC(=O)CN)C(=O)N[C@@H](Cc1c[nH]c2ccccc12)C(=O)N[C@@H](CCCNC(=N)N)C(=O)N[C@@H](C)C(=O)N[C@@H](CC(C)C)C(=O)N[C@@H](Cc1c[nH]c2ccccc12)C(=O)N[C@@H](CCCNC(=N)N)C(=O)N[C@@H](C)C(=O)N[C@@H](CC(C)C)C(=O)N[C@@H](Cc1c[nH]c2ccccc12)C(=O)N[C@@H](CCCNC(=N)N)C(=O)N[C@@H](CO)C(=O)N[C@@H](CC(C)C)C(=O)N[C@@H](Cc1c[nH]c2ccccc12)C(=O)N[C@@H](CCCCN)C(=O)N[C@@H](CCCCN)C(=O)N[C@@H](CCCCN)C(=O)N[C@@H](CCCNC(=N)N)C(=O)N[C@@H](CCCCN)C(=O)N[C@H](C(=O)NCCS)C(C)C [CADY-2c] (HELM PEPTIDE1{G.L.W.R.A.L.W.R.A.L.W.R.S.L.W.K.K.K.R.K.V.[SCCN[*:1]]}$$$$V2.0),340 µM,
CC(C)C[C@H](NC(=O)CN)C(=O)N[C@@H](Cc1c[nH]c2ccccc12)C(=O)N[C@@H](CCCNC(=N)N)C(=O)N[C@@H](C)C(=O)N[C@@H](CC(C)C)C(=O)N[C@@H](Cc1c[nH]c2ccccc12)C(=O)N[C@@H](CCCNC(=N)N)C(=O)NCC(=O)N[C@@H](CC(C)C)C(=O)N[C@@H](CCCNC(=N)N)C(=O)N[C@@H](CO)C(=O)N[C@@H](CC(C)C)C(=O)N[C@@H](Cc1c[nH]c2ccccc12)C(=O)N[C@@H](CCCCN)C(=O)N[C@@H](CC(C)C)C(=O)N[C@@H](CCCCN)C(=O)N[C@@H](CCCNC(=N)N)C(=O)N[C@@H](CCCCN)C(=O)N[C@H](C(=O)NCCS)C(C)C [CADY-1d] (HELM PEPTIDE1{G.L.W.R.A.L.W.R.G.L.R.S.L.W.K.L.K.R.K.V.[SCCN[*:1]]}$$$$V2.0),500 µM,
CC(C)C[C@H](NC(=O)CN)C(=O)N[C@@H](Cc1c[nH]c2ccccc12)C(=O)N[C@@H](CCCNC(=N)N)C(=O)N[C@@H](C)C(=O)N[C@@H](CC(C)C)C(=O)N[C@@H](Cc1c[nH]c2ccccc12)C(=O)N[C@@H](CCCNC(=N)N)C(=O)N[C@@H](CC(C)C)C(=O)N[C@@H](CC(C)C)C(=O)N[C@@H](CCCNC(=N)N)C(=O)N[C@@H](CO)C(=O)N[C@@H](CC(C)C)C(=O)N[C@@H](Cc1c[nH]c2ccccc12)C(=O)N[C@@H](CCCNC(=N)N)C(=O)N[C@@H](CC(C)C)C(=O)N[C@@H](CC(C)C)C(=O)N[C@@H](Cc1c[nH]c2ccccc12)C(=O)N[C@@H](CO)C(=O)N[C@@H](CCC(N)=O)C(=O)N1CCC[C@H]1C(=O)N[C@@H](CCCCN)C(=O)N[C@@H](CCCCN)C(=O)N[C@@H](CCCCN)C(=O)N[C@@H](CCCNC(=N)N)C(=O)N[C@@H](CCCCN)C(=O)N[C@H](C(=O)NCCS)C(C)C [CADY-2e] (HELM PEPTIDE1{G.L.W.R.A.L.W.R.L.L.R.S.L.W.R.L.L.W.S.Q.P.K.K.K.R.K.V.[SCCN[*:1]]}$$$$V2.0),430 µM,
Ac-GLWRALWRALWRSLWKLKWKV-Cysteamide [CADY-2 (Ac-…-Cya)],,Kd [2]: 0.019 µM; ratio at saturation (cargo/CADY molar ratio) [2]: 0.05
